The source of these data is US4622422A, “Cyclohexanealkanoic acids” (Merrell Dow Pharmaceuticals Inc., priority 1985, dated 1986).

The IC50 is the concentration that inhibits the measured activity by half.

Molecules are shown by their SMILES.

Assay [1] has as its target T1, 3H-LTD4 specific receptor (guinea pig lung membranes) (Cavia porcellus, UniProt Q2NNR5).
T1 construct: from tissue; host or cells: guinea pig lung membranes (30,000 g pellet)
T1 sequence (Q2NNR5 1-340): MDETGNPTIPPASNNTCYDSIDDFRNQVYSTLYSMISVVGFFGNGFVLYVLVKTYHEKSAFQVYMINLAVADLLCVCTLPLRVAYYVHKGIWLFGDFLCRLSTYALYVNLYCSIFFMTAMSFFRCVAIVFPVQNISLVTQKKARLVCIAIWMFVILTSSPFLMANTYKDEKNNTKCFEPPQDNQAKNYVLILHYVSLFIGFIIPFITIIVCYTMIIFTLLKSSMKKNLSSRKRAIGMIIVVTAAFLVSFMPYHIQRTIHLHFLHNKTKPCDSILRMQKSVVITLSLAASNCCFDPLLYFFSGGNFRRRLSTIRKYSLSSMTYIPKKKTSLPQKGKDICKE
As to the kind of experiment: 3H-LTD4 - Specific Receptor Binding in Guinea Pig Lung Membranes. Conditions: inhibition of 3H-LTD4 specific binding; pH 7.6, 37° C., 20-40 min; read-out: G.P. LUNG SPECIFIC BINDING IC50. The procedure: Male guinea pigs were sacrificed and the lungs were removed and placed in ice cold 50 mM Tris-HCl buffer, pH 7.4. The lungs were then homogenized with a Polytron homogenizer and the homogenate was centrifuged at 1000 g for 10 minutes at 4° C. The supernatant was then centrifuged at 30,000 g for 15 minutes at 4° C. to obtain the membrane pellet. This pellet was resuspended in 50 mM Tris-HCl to provide the working suspension of lung membranes. Binding assays were then carried out in 50 mM Tris-HCl at pH 7.6 and 37° C. using incubation periods of 20-40 min. Separation of bound ^3 H-LTD4 from free ^3 H-LTD4 were performed by rapid vacuum filtration through Whatman GF/B glass fiber filters using ice cold Tris-HCl buffer and three 4 ml washes. Filtration and washing were completed in less than 8 seconds. The radioactivity on the filters was then measured. Specific binding of ^3 H-LTD4 was defined as the binding of ^3 H-LTD4 in the absence of unlabelled LTD4 minus the binding of ^3 H-LTD4 in the presence of 2×10^-7 M unlabelled LTD4. Specific binding of ^3 H-LTD4 was 60-80% of total binding. […] In these tests increasing concentrations of the agent are used to block the ^3 H-LTD4 specific binding. The concentration that reduces the specific binding of ^3 H-LTD4 by 50% is termed the IC50.

Assay [2] deals with T2, leukotriene D4 (longitudinal muscle of guinea pig ileum) (Cavia porcellus, UniProt Q2NNR5).
T2 construct: The longitudinal muscle was then carefully dissected from the circular muscle of the ileum; from tissue; host or cells: guinea pig ileum, longitudinal muscle segments
T2 sequence (Q2NNR5 1-340): T1 sequence (Q2NNR5 1-340)
As to the kind of experiment: Longitudinal Muscle of Guinea Pig Ileum; antagonism of LTD4-induced contraction. The class given is cell-based. Conditions: 1 μM Indomethacin, 15 min with test agent, then cumulative LTD4, Arunlakshana and Schild, read-out: G.P. ILEUM pA2 (LTD4) (converted). How it is done:
Male, Hartley-Duncan, guinea pigs were sacrificed by cervical dislocation. The terminal portion of the ileum was removed, rinsed, and placed in Burn's modified Tyrode's solution. The longitudinal muscle was then carefully dissected from the circular muscle of the ileum. The longitudinal muscle was cut into 1-2 cm. segments which were placed in a tissue bath containing oxygenated Burn's modified Tyrode's solution warmed to 37° C. A tension of 1.0 gram was then placed on each segment of muscle. After equilibration for 1 hour, 1 μM Indomethacin was added to each bath. After 5 minutes, each tissue segment was then exposed to a concentration of 60 nM leukotriene D4. This response was then considered to be the initial maximal contraction that each segment will produce. After washing the tissue several times, over a 1 hour period, 1 μM Indomethacin was again added to each bath. After a 5 minute period the test agent or vehicle was added to the bath. After 15 minutes, a concentration-response curve was generated using cumulatively increasing concentrations of leukotriene D4. The concentration-response was then compared to the initial maximum contraction. A test compound was considered active, if at concentrations up to 100 μM, it produces a significant shift to the right of the concentration-response relationship to leukotriene D4. The antagonist activity was quantitated in terms of a pA2 value calculated according to the method described by Arunlakshana and Schild, (Brit. J. Pharmac. Chemotherap. 14; 48, 1959).

The test system of the next assay is leukotriene D4. As to the kind of experiment: In vivo leukotriene D4 antagonist activity in anesthetized guinea pigs (modified Konzett-Rossler preparation). The arrangement: species or system guinea pig. Conditions: 10-20 min before 1 μg/ml LTD4 aerosol (1 min), inflation pressure response. How it is done:
Compounds of the present invention were also tested for in vivo leukotriene D4 antagonist activity in anesthetized guinea pigs using a modified Konzett-Rossler preparation. Specifically, the guinea pigs were anesthetized with sodium pentobarbital and surgically prepared for artificial ventilation by a constant volume respirator. The inflation pressure produced by the respirator was measured for each inflation of the guinea pigs' lungs. Increases in inflation pressure above baseline are indicative of bronchoconstriction. After establishing a baseline inflation pressure, the guinea pig was exposed for 1 minute to an aerosol generated ultrasonically from a 1 μg/ml solution of leukotriene D4. After the inflation pressure returned to baseline, the guinea pig was exposed to an aerosol generated from a solution of a test compound. Ten to twenty minutes later, the guinea pig was re-exposed to a 1 minute aerosol generated from 1 μg/ml leukotriene D4. This response was then compared to the initial response and the % inhibition of the response was determined.

As to `CCCCCCCCCCCCC/C=C1\CC[C@@H](CC(=O)O)[C@H](O)[C@H]1SCCC(=O)O` (relative stereo) [Example 15B, (1α,2β,3α,4E)-3-[(2-Carboxyethyl)thio]-2-hydroxy-4-tetradecylidenecyclohexaneacetic acid], the IC50 in assay [1] was 0.4 µM. For the same compound, in assay [2], the Kb is 3.09 µM. The “PERCENT INHIBITION” value in the assay with leukotriene D4 (5 mg/ml solution aerosolized) was determined as 44.3%.

In the case of `CCCCCCCCCCCCC/C=C1\CC[C@@H](CCC(=O)O)[C@@H](O)[C@@H]1SCC(=O)O` (relative stereo) [Example 15C, (1α,2α,3β,4E)-3-[(Carboxymethyl)thio]-2-hydroxy-4-tetradecylidenecyclohexanepropionic acid], in assay [2], the Kb was 1.62 µM.

As to `CCCCCCCCCCCCC/C=C1\CC[C@@H](CC(=O)O)[C@H](O)[C@H]1SCC(=O)O` (relative stereo) [Example 15A, (1α,2β,3α,4E)-3-[(carboxymethyl)thio]-2-hydroxy-4-tetradecylidenecyclohexaneacetic acid], the IC50 in assay [1] is 3 µM. Besides, in assay [2], the Kb is 3.39 µM. The “PERCENT INHIBITION” value in the assay on leukotriene D4 (5 mg/ml solution aerosolized) was 25.3%; in the assay on leukotriene D4 (10 mg/ml solution aerosolized), 64.2%.

In the case of `CCCCCCCCCCCCC/C=C1\CC[C@@H](CCC(=O)O)[C@H](O)[C@H]1SCC(=O)O` (relative stereo) [Example 15E, (1α,2β,3α,4E)-3-[(Carboxymethyl)thio]-2-hydroxy-4-tetradecylidenecyclohexanepropionic acid], in assay [2], the Kb was 2.24 µM.

In the case of `CCCCCCCCCCCCC/C=C1\CC[C@@H](CCC(=O)O)[C@@H](O)[C@@H]1SCCC(=O)O` (relative stereo) [Example 15D, (1α,2α,3β,4E)-3-[(2-Carboxyethyl)thio]-2-hydroxy-4-tetradecylidenecyclohexanepropionic acid], in assay [2], the Kb was 2 µM.

Regarding `CCCCCCCCCCCCC/C=C1\CC[C@@H](CC(=O)O)[C@@H](O)[C@H]1SCC(=O)O` (relative stereo) [Example 18, (1α,2α,3α,4E)-3-[(carboxymethyl)thio]-2-hydroxy-4-tetradecylidenecyclohexaneacetic acid], in assay [2], the Kb was 30.9 µM.
